Measured values from patent EP3807270B1, “NOVEL HETEROARYL HETEROCYCLYL COMPOUNDS FOR THE TREATMENT OF AUTOIMMUNE DISEASE” (F. Hoffmann-La Roche AG, priority 2018, dated 2019).

Biological target: T1, hTLR7 (Homo sapiens, UniProt Q9NYK1)
T1 sequence (Q9NYK1 27-1049): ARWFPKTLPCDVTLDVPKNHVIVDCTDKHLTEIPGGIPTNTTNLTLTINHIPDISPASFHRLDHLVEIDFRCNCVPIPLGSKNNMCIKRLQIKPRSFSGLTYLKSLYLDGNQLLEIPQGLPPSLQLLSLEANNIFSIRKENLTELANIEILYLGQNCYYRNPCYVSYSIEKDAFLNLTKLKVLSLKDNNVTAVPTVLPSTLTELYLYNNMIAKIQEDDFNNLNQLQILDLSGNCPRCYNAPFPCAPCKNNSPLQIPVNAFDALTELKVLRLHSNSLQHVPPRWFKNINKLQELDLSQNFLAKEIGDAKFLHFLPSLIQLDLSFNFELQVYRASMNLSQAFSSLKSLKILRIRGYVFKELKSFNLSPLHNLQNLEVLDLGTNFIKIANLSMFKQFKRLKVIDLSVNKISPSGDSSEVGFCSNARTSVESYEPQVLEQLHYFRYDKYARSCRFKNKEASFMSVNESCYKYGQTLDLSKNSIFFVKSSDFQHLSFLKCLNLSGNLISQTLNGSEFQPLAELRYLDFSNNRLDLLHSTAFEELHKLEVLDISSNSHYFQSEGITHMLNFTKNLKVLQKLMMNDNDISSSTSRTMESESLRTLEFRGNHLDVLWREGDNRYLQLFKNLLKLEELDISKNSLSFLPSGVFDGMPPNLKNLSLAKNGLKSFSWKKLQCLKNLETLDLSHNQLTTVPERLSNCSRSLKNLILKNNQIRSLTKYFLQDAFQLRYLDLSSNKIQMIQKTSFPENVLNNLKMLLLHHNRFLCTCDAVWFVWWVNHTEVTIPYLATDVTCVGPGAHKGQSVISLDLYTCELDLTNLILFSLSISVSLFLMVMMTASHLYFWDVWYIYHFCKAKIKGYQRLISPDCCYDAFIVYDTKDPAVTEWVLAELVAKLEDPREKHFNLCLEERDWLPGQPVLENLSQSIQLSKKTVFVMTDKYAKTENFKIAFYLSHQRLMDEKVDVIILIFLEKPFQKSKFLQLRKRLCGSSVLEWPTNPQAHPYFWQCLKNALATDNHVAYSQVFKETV
Assay: HEK293-Blue-hTLR-7 cells assay (SEAP reporter, R848 stimulation)
Type: cell-based
Parameters: host or cells: HEK293 (HEK-Blue)
Details: HEK293-Blue-hTLR7 cells, R848, 20 hrs; read-out: HEK/hTLR7 IC50
Text: A stable HEK293-Blue-hTLR-7 cell line was purchased from InvivoGen (Cat.#: hkb-htlr7, San Diego, California, USA). These cells were originally designed for studying the stimulation of human TLR7 by monitoring the activation of NF-κB. A SEAP (secreted embryonic alkaline phosphatase) reporter gene was placed under the control of the IFN-β minimal promoter fused to five NF-κB and AP-1-binding sites. The SEAP was induced by activating NF-xB and AP-1 via stimulating HEK-Blue hTT,R7 cells with TLR7 ligands. Therefore, the reporter expression was declined by TLR7 antagonist under the stimulation of a ligand, such as R848 (Resiquimod), for incubation of 20 hrs. The cell culture supernatant SEAP reporter activity was determined using QUANTI-Blue™ kit (Cat.#: rep-qb1, Invivogen, San Diego, Ca, USA) at a wavelength of 640 nm, a detection medium that turns purple or blue in the presence of alkaline phosphatase.
HEK293-Blue-hTLR7 cells were incubated at a density of 250,000-450,000 cells/mL in a volume of 170 µL in a 96-well plate in Dulbecco's Modified Eagle's medium (DMEM) containing 4.5 g/L glucose, 50 U/mL penicillin, […], […], 2 mM L-glutamine, 10% (v/v) heat-inactivated fetal bovine serum with addition of 20 µL test compound in a serial dilution in the presence of final DMSO at 1% and 10 µL of 20uM R848 in above DMEM, perform incubation under 37 °C in a CO2 incubator for 20 hrs. Then 20 µL of the supernatant from each well was incubated with 180 µL Quanti-blue substrate solution at 37 °C for 2 hrs and the absorbance was read at 620-655 nm using a spectrophotometer. The signaling pathway that TLR7 activation leads to downstream NF-xB activation has been widely accepted, and therefore similar reporter assay was modified for evaluating TLR7 antagonist.

Row | IC50 [nM] | Structure (SMILES)
1 | 5 | C[C@@H]1CN(c2ccc(C#N)c3ncccc23)C[C@H](CN2CCN(c3ncnc4c3CNCC4)CC2)O1 [Example 61, 5-[(2R,6S)-2-methyl-6-[[4-(5,6,7,8-tetrahydropyrido[4,3-d]pyrimidin-4-yl)piperazin-1-yl]methyl]morpholin-4-yl]quinoline-8-carbonitrile]
2 | 5 | C[C@@H]1CN(c2ccc(C#N)c3nccnc23)C[C@H](CN2CCN(c3cc4c(cn3)[C@H](C)NCC4)CC2)O1 (single isomer, unassigned) [Example 85]
3 | 11 | C[C@@H]1Cc2cnc(N3CCN(C[C@H]4CN(c5ccc(C#N)c6ncccc56)C[C@@H](C)O4)CC3)cc2CN1 (single isomer, unassigned) [Example 77]
4 | 64 | C[C@@H]1CN(c2ccc(C#N)c3ncccc23)C[C@H](CN2CCN(c3ccc4c(c3)CNC4)[C@@H](CO)C2)O1 [Example 4, 5-[(2S,6R)-2-[[(3R)-3-(hydroxymethyl)-4-isoindolin-5-yl-piperazin-1-yl]methyl]-6-methyl-morpholin-4-yl]quinoline-8-carbonitrile]
5 | 12 | C[C@@H]1CN(c2ccc(C#N)c3ncccc23)C[C@H](CN2CC3(C2)CN(c2ncc4c(n2)CCNC4)CCO3)O1 [Example 51, 5-[(2R,6S)-2-methyl-6-[[8-(5,6,7,8-tetrahydropyrido[4,3-d]pyrimidin-2-yl)-5-oxa-2,8-diazaspiro[3.5]nonan-2-yl]methyl]morpholin-4-yl]quinoline-8-carbonitrile]
6 | 73 | C[C@@H]1CN(c2ccc(C#N)c3ncccc23)C[C@H](CN2CCN(c3ccc4c(c3)CNC4)CC2CO)O1 (stereo partly drawn) [Example 15, 5-[(2S,6R)-2-[[2-(hydroxymethyl)-4-isoindolin-5-yl-piperazin-1-yl]methyl]-6-methyl-morpholin-4-yl]quinoline-8-carbonitrile]
7 | 39 | C[C@@H]1CN(c2ccc(C#N)n3ncc(F)c23)C[C@H](CN2CCN(c3cnc4c(c3)CNC4)CC2)O1 [Example 26, 4-[(2S,6R)-2-[[4-(6,7-dihydro-5H-pyrrolo[3,4-b]pyridin-3-yl)piperazin-1-yl]methyl]-6-methyl-morpholin-4-yl]-3-fluoro-pyrazolo[1,5-a]pyridine-7-carbonitrile]
8 | 6 | C[C@@H]1CN(c2ccc(C#N)c3ncccc23)C[C@H](CN2C[C@H]3CN(c4ccc5c(n4)CCNC5)CC[C@@H]32)O1 (single isomer, unassigned) [Example 54]
9 | 11 | CC1NCc2cc(N3CCN(C[C@H]4CN(c5ccc(C#N)c6ncccc56)C[C@@H](C)O4)CC3)ccc21 (stereo partly drawn) [Example 28, 5-[(2R,6S)-2-methyl-6-[[4-(1-methylisoindolin-5-yl)piperazin-1-yl]methyl]morpholin-4-yl]quinoline-8-carbonitrile]
10 | 26 | C[C@@H]1Cc2cc(N3CCN(C[C@H]4CN(c5ccc(C#N)c6ncccc56)C[C@@H](C)O4)CC3)ncc2CN1 (single isomer, unassigned) [Example 70]
11 | < 3 | C[C@@H]1CN(c2ccc(C#N)c3ncccc23)C[C@H](CN2CCN(c3nccc4c3CCNC4)CC2)O1 [Example 62, 5-[(2R,6S)-2-methyl-6-[[4-(5,6,7,8-tetrahydro-2,6-naphthyridin-1-yl)piperazin-1-yl]methyl]morpholin-4-yl]quinoline-8-carbonitrile]
12 | 61 | C[C@@H]1CN(c2ccc(C#N)c3ncccc23)C[C@H](CN2CCN(c3ccc4c(n3)CCNC4)C[C@@H](O)C2)O1 (single isomer, unassigned) [Example 35B]
13 | 60 | C[C@@H]1CN(c2ccc(C#N)c3ncccc23)C[C@H](CN2CCN(c3ccc4c(n3)CCNC4)C[C@H](O)C2)O1 (single isomer, unassigned) [Example 35A]
14 | 13 | C[C@@H]1CN(c2ccc(C#N)c3ncccc23)C[C@H](CN2CCN(c3cc4c(cn3)[C@H](C)NCC4)CC2)O1 (single isomer, unassigned) [Example 72]
15 | 95 | COc1ccc(N2CCN(C[C@H]3CN(c4ccc(C#N)c5ncccc45)C[C@@H](C)O3)CC2)cc1 [Example R1, 5-[(2S,6R)-2-[[4-(4-methoxyphenyl)piperazin-1-yl]methyl]-6-methyl-morpholin-4-yl]quinoline-8-carbonitrile, reference compound]
16 | 24 | C[C@@H]1CN(c2ccc(C#N)c3ncccc23)C[C@H](CN2CCN(c3cc4c(cn3)CN[C@@H](C)C4)CC2)O1 (single isomer, unassigned) [Example 71]
17 | 14 | C[C@@H]1CN(c2ccc(C#N)c3ncccc23)C[C@H](CN2CCN(c3ccc4c(n3)[C@H](C)NC4)CC2)O1 (single isomer, unassigned) [Example 66]
18 | 41 | C[C@@H]1CN(c2ccc(C#N)c3ncccc23)C[C@H](CN2CCN(c3ccc4c(c3)C(O)CN(C)C4)CC2)O1 (stereo partly drawn) [Example 59, 5-[(2S,6R)-2-[[4-(4-hydroxy-2-methyl-3,4-dihydro-1H-isoquinolin-6-yl)piperazin-1-yl]methyl]-6-methyl-morpholin-4-yl]quinoline-8-carbonitrile]
19 | 7 | C[C@@H]1CN(c2ccc(C#N)c3ncccc23)C[C@H](CN2CCN(c3ccc4c(n3)[C@@H](C)NC4)CC2)O1 (single isomer, unassigned) [Example 65]
20 | 11 | C[C@@H]1CN(c2ccc(C#N)c3ncccc23)C[C@H](CN2CCN(c3ncc4c(n3)CNCC4)CC2)O1 [Example 12, 5-[(2R,6S)-2-methyl-6-[[4-(5,6,7,8-tetrahydropyrido[3,4-d]pyrimidin-2-yl)piperazin-1-yl]methyl]morpholin-4-yl]quinoline-8-carbonitrile]
21 | 65 | C[C@@H]1CN(c2ccc(C#N)c3ncccc23)C[C@H](CN2CCC(Nc3ccc4c(c3)CNC4)C2)O1 (stereo partly drawn) [Example 38, 5-[(2S,6R)-2-[[3-(isoindolin-5-ylamino)pyrrolidin-1-yl]methyl]-6-methyl-morpholin-4-yl]quinoline-8-carbonitrile]
22 | 57 | C[C@@H]1CN(c2ccc(C#N)c3ncccc23)C[C@H](CN2CCN(c3ccc4c(c3)CNC4)C(CO)C2)O1 (stereo partly drawn) [Example 13, 5-[(2S,6R)-2-[[3-(hydroxymethyl)-4-isoindolin-5-yl-piperazin-1-yl]methyl]-6-methyl-morpholin-4-yl]quinoline-8-carbonitrile]
23 | 210 | C[C@@H]1CN(c2ccc(C#N)c3ncccc23)C[C@H](CN2CCN(c3ccc(Cl)cc3)CC2)O1 [Example R2, 5-[(2S,6R)-2-[[4-(4-chlorophenyl)piperazin-1-yl]methyl]-6-methyl-morpholin-4-yl]quinoline-8-carbonitrile, reference compound]
24 | 11 | C[C@@H]1CN(c2ccc(C#N)c3ncccc23)C[C@H](CN2CCN(c3nc4c(s3)CNCC4)CC2)O1 [Example 31, 5-[(2R,6S)-2-methyl-6-[[4-(4,5,6,7-tetrahydrothiazolo[5,4-c]pyridin-2-yl)piperazin-1-yl]methyl]morpholin-4-yl]quinoline-8-carbonitrile]
25 | 8 | C[C@@H]1CN(c2ccc(C#N)c3ncccc23)C[C@H](CN2CCN(c3cc4c(cn3)CCN[C@H]4C)CC2)O1 (single isomer, unassigned) [Example 75]
26 | 12 | C[C@@H]1CN(c2ccc(C#N)c3ncccc23)C[C@H](CN2CCN(c3ccc4c(n3)CN[C@@H]4C)CC2)O1 (single isomer, unassigned) [Example 64]
